Biological target: T1, N4CMT79–324 (Adineta vaga, UniProt A0AAB0B2A1)
T1 sequence (A0AAB0B2A1 2-247): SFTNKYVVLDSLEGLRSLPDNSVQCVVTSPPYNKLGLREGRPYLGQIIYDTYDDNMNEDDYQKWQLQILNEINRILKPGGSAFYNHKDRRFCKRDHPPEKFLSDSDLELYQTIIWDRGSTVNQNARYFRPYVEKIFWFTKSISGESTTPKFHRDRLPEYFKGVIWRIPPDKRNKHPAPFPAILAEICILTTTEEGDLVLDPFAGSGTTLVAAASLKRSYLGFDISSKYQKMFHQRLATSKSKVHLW
Assay: X-ray crystal structure, […] A, space group C222_[…]
Details: SAM-binding site; 600 uM sinefungin preincubated, no DNA

Compound: Nc1ncnc2c1ncn2[C@@H]1O[C@H](C[C@@H](N)CC[C@H](N)C(=O)O)[C@@H](O)[C@H]1O [sinefungin]
- X-ray crystal structure, 1.49 A, space group C222_1: sinefungin binds in the SAM-binding site, and its adenosyl moiety is solvent-exposed on the surface

From publication PMC10406627 (The Journal of Biological Chemistry, 2023)
